# Results from patent US8772230B2, “Niacin and/or trigonelline as a muscle stimulant” (DSM IP Assets B.V., priority 2009, dated 2014).
# Where a name gives a salt, the structure may show the parent alone. Read-outs that look alike come from different tables or passages of the source. Marks after values point to notes of the source that are not given here.
# What was measured:
# Female C57B1/6 mice [1] = settings: three weeks
# Excerpt: The gastrocnemius muscle from one hindlimb of the animals was removed to induce compensatory hypertrophy in the plantaris and soleus muscles by multiple mechanisms. This model increases the muscle weight under muscle load/training. It simulates the human condition of an average human who is physically active or an athlete to support skeletal muscle function during exercise.
# (§1) Female C57B1/6 mice were delivered at a weight of 18-20 g and acclimatized to the facilities for a period of one week. At the beginning of the study the animals were randomized into two groups (10 animals per group).
# The animals were anesthetized and the left hindlimb of the animals was fixed. A small incision was made through the skin over the gastrocnemius muscle. The complete gastrocnemius muscle and its tendons were exposed. Both heads of the gastrocnemius muscle were carefully dissected from the underlying intact muscles and care was taken not to rupture nerves and vessels. The skin was closed with a silk and the animals were returned separately into their cages. […] All animals received an analgesic. Animals were treated for three weeks by gavage with trigonelline-hydrochloride at a daily dosage of 300 mg/kg BW and the control group received vehicle.
# Female C57B1/6 mice [2] = settings: three weeks tail suspension
# Excerpt: To extend our in vitro and in vivo results we were also interested in testing the effects of trigonelline during skeletal muscle unloading (atrophy conditions). Therefore we conducted a second in vivo study were the hindlimbs of the animals were unloaded to induce skeletal muscle atrophy.
# Tail suspension leads to skeletal muscle atrophy in the unloaded hindlimbs of the animals.
# as §1
# Thereafter the groups were placed in special cages and the hindlimbs were unloaded (tail suspension) for a duration of three weeks. All mice were housed separately and had access to feed and water ad libidum. Animals were treated for three weeks by gavage with trigonelline-hydrochloride at a daily dosage of 300 mg/kg/BW and the control group received vehicle.
# Female C57B1/6 mice [3] = tested on: Female C57B1/6 mice
# Method: To test the effect of trigonelline in non-trained animals, we performed a maximal endurance test after a treatment period of three weeks.
# Female C57B1/6 mice were delivered at a weight of 18-20 g and acclimatized to the facilities for a period of one week. At the beginning of the study the animals were randomized into two groups (10 animals per group). All mice were housed separately and had access to feed and water ad libidum. Animals were treated for three weeks by gavage with trigonelline-hydrochloride at a daily dosage of 300 mg/kg/BW and the control group received vehicle.
# For acclimatization, animals were placed on the treadmill for 5 minutes after two weeks. The maximal endurance test was performed two day before the section of the animals.
# [4] = tested on: C2C12 mouse myoblast cells; settings: 10 μg/ml trigonelline monohydrate, 24 h, vs DMSO control
# Method: C2C12 cells were seeded on 96 well collagen-I plates (1600 cells/well) in growth medium (Dulbecco's modified Eagle's medium (DMEM) supplemented with 10% FBS, 2 mM L-Glutamine, 1 mM pyruvate, 50 IU/ml penicillin, 50 ug/ml streptavidin) until it reaches 100% confluency, approximately 3 days. […] Final DMSO concentration was standardized to 0.5% in all wells. Cells were cultured at 37° C., with 5% CO2.
# Cells were fixed with 3.7% formaldehyde solution (37% formaldehyde diluted in growth medium, sterile filtered before used) for 10 min. at room temperature, and washed twice with 1×DPBS (1× Dulbecco's Phosphate Buffered Saline). After permeabilization with 0.1% TritonX-100 (diluted in 1×DPBS) for 2 min. the samples were blocked with 1×DPBS plus 2% BSA for 1 h. For myocyte labelling, the cells were labelled with 1:20 anti-alpha-myosin heavy chain antibody (MF-20) for 1 hour. The samples were washed with 1×DPBS and fluorescently labelled with secondary antibody (1:250 Alexa 488 IgG antimouse secondary antibody plus 1:2000 Hoechst in 1×DPBS) for 1 h. Finally, the cells were washed twice with 1×DPBS and plates were sealed for imaging on the ArrayScan® HCS Reader.
# For image analysis myosin labelled myotubes were quantified on the ArrayScan HCS Reader using BioApplication Morphology Explorer.V2. Myocytes were selected with Object Area larger than 500 and Object Total Intensity greater than 1000.
# [5] = 300 mg/kg BW daily by gavage, computer tomography
# [6] = 300 mg/kg BW daily by gavage, non-operated leg
# [7] = 300 mg/kg/BW daily by gavage, computer tomography
# [8] = 300 mg/kg/BW daily by gavage, three weeks, untrained mice
smiles,measurement,setting,value
"C[n+]1cccc(C(=O)[O-])c1 [Trigonelline-hydrochloride, trigonelline-hydrochloride]",Muscle cross-sectional area - non operated leg,Female C57B1/6 mice [1]; [5],32.15 mm^2
same,Muscle cross-sectional area - operated leg,Female C57B1/6 mice [1]; [5],23.72 mm^2
same,Total leg cross-sectional area - non operated leg,Female C57B1/6 mice [1]; [5],35.05 mm^2
same,Total leg cross-sectional area - operated leg,Female C57B1/6 mice [1]; [5],26.79 mm^2
same,Gastrocnemius-Plantaris-Soleus muscle weight (whole leg)/body weight (non-operated leg),Female C57B1/6 mice [1]; [6],5.50 mg/g
same,M. gastrocnemius wet weight (non-operated leg),Female C57B1/6 mice [1]; [6],99.3 mg
same,M. gastrocnemius wet weight/body weight (non-operated leg),Female C57B1/6 mice [1]; [6],4.57 mg/g
same,M. plantaris wet weight (non-operated leg),Female C57B1/6 mice [1]; [6],13 mg
same,M. plantaris wet weight/body weight (non-operated leg),Female C57B1/6 mice [1]; [6],0.60 mg/g
same,M. soleus wet weight (non-operated leg),Female C57B1/6 mice [1]; [6],7.2 mg
same,M. soleus wet weight/body weight (non-operated leg),Female C57B1/6 mice [1]; [6],0.33 mg/g
same,Gastrocnemius-Plantaris-Soleus muscle weight (whole leg)/body weight,Female C57B1/6 mice [2]; 300 mg/kg/BW daily by gavage,4.89* mg/g
same,M. gastrocnemius wet weight,Female C57B1/6 mice [2]; 300 mg/kg/BW daily by gavage,86.01* mg
same,M. gastrocnemius wet weight/body weight,Female C57B1/6 mice [2]; 300 mg/kg/BW daily by gavage,4.16* mg/g
same,M. plantaris wet weight,Female C57B1/6 mice [2]; 300 mg/kg/BW daily by gavage,10.53 mg
same,M. plantaris wet weight/body weight,Female C57B1/6 mice [2]; 300 mg/kg/BW daily by gavage,0.51* mg/g
same,M. soleus wet weight,Female C57B1/6 mice [2]; 300 mg/kg/BW daily by gavage,4.62 mg
same,M. soleus wet weight/body weight,Female C57B1/6 mice [2]; 300 mg/kg/BW daily by gavage,0.22 mg/g
same,Muscle cross-sectional area,Female C57B1/6 mice [2]; [7],27.8 mm^2
same,Total leg cross-sectional area,Female C57B1/6 mice [2]; [7],30.4 mm^2
same,increase of wet weight of the gastrocnemius muscle (relative to the body weight),"Female C57B1/6 mice [2]; trigonelline-hydrochloride 300 mg/kg/BW daily, vs control (FIG. 3), statistically significant",9%
same,Gastrocnemius-Plantaris-Soleus muscle weight (whole leg)/body weight,Female C57B1/6 mice [3]; [8],5.41 mg/g
same,M. gastrocnemius wet weight,Female C57B1/6 mice [3]; [8],100.66 mg
same,M. gastrocnemius wet weight/body weight,Female C57B1/6 mice [3]; [8],4.57 mg/g
same,M. plantaris wet weight,Female C57B1/6 mice [3]; [8],12.12 mg
same,M. plantaris wet weight/body weight,Female C57B1/6 mice [3]; [8],0.55 mg/g
same,M. soleus wet weight,Female C57B1/6 mice [3]; [8],6.29 mg
same,M. soleus wet weight/body weight,Female C57B1/6 mice [3]; [8],0.29 mg/g
same,Mean running time,"Female C57B1/6 mice [3]; 300 mg/kg/BW daily by gavage, three weeks, untrained mice, treadmill",38.70 min
C[n+]1cccc(C(=O)[O-])c1 [Trigonelline],increase of wet weight of the non-operated gastrocnemius muscle (relative to the body weight),"Female C57B1/6 mice [1]; trigonelline-hydrochloride 300 mg/kg BW daily, vs control (FIG. 2)",7%
same,wet weight of the gastrocnemius muscle vs control (in words),"Female C57B1/6 mice [3]; three weeks treatment, untrained mice (FIG. 4)",equal in both groups
same,increase of differentiation in C2C12 mouse myoblast cells (number of myocytes),[4],36%
